Laboratory results reported in patent US9242987B2, “Heterocyclyl pyrazolopyrimidine analogues as JAK inhibitors” (Cellzome Limited, priority 2009, dated 2016).

Columns and labels:
JAK2 = biological target: T1, JAK2 (Homo sapiens, UniProt O60674); test: Kinobeads assay, JAK2; format: binding; conditions: mixed Molt4/Ramos cell lysate, dot blot detection
T1 construct: endogenous in cells; host or cells: Mixed Molt4/Ramos lysate (1:2)
Method: (§1) The compounds of the present invention as described in the previous examples were tested in a Kinobeads™ assay as described for ZAP-70 (WO-A 2007/137867). Briefly, test compounds (at various concentrations) and the affinity matrix with the immobilized aminopyrido-pyrimidine ligand 24 were added to cell lysate aliquots and allowed to bind to the proteins in the lysate sample. After the incubation time the beads with captured proteins were separated from the lysate. Bound proteins were then eluted and the presence of JAK2 and JAK3 was detected and quantified using specific antibodies in a dot blot procedure and the Odyssey infrared detection system. Dose response curves for individual kinases were generated and IC50 values calculated. Kinobeads™ assays for ZAP-70 (WO-A 2007/137867) and for kinase selectivity profiling (WO-A 2006/134056) have been previously described.
(§2) The affinity matrix was washed two times with 15 mL of 1×DP buffer containing 0.2% NP40 (IGEPAL® CA-630, Sigma, #13021) and then resuspended in 1×DP buffer containing 0.2% NP40 (3% beads slurry).
(§3) 5×DP buffer: 250 mM Tris-HCl pH 7.4, 25% Glycerol, 7.5 mM MgCl2, 750 mM NaCl, 5 mM Na3VO4; filter the 5×DP buffer through a 0.22 μm filter and store in aliquots at −80° C. The 5×DP buffer is diluted with H2O to 1×DP buffer containing 1 mM DTT and 25 mM NaF.
(§4) Stock solutions of test compounds were prepared in DMSO. In a 96 well plate 30 μL solution of diluted test compounds at 5 mM in DMSO were prepared. Starting with this solution a 1:3 dilution series (9 steps) was prepared. For control experiments (no test compound) a buffer containing 2% DMSO was used.
(§5) Molt4 cells (ATCC catalogue number CRL-1582) and Ramos cells (ATCC catalogue number CRL-1596) were grown in 1 L Spinner flasks (Integra Biosciences, #182101) in suspension in RPMI 1640 medium (Invitrogen, #21875-034) supplemented with 10% Fetal Bovine Serum (Invitrogen) at a density between 0.15×10^6 and 1.2×10^6 cells/mL. Cells were harvested by centrifugation, washed once with 1×PBS buffer (Invitrogen, #14190-094) and cell pellets were frozen in liquid nitrogen and subsequently stored at −80° C. Cells were homogenized in a Potter S homogenizer in lysis buffer: 50 mM Tris-HCl, 0.8% NP40, 5% glycerol, 150 mM NaCl, 1.5 mM MgCl2, 25 mM NaF, 1 mM sodium vanadate, 1 mM DTT, pH 7.5. One complete EDTA-free tablet (protease inhibitor cocktail, Roche Diagnostics, 1873580) per 25 mL buffer was added. The material was dounced 10 times using a mechanized POTTER S, transferred to 50 mL falcon tubes, incubated for 30 minutes on ice and spun down for 10 minutes at 20,000 g at 4° C. (10,000 rpm in Sorvall SLA600, precooled). The supernatant was transferred to an ultracentrifuge (UZ)-polycarbonate tube (Beckmann, 355654) and spun for 1 hour at 100.000 g at 4° C. (33.500 rpm in Ti50.2, precooled). The supernatant was transferred again to a fresh 50 mL falcon tube, the protein concentration was determined by a Bradford assay (BioRad) and samples containing 50 mg of protein per aliquot were prepared. The samples were immediately used for experiments or frozen in liquid nitrogen and stored frozen at −80° C.
(§6) Cell lysate (approximately 50 mg protein per plate) was thawed in a water bath at room temperature and then stored on ice. To the thawed cell lysate 1×DP 0.8% NP40 buffer containing protease inhibitors (1 tablet for 25 mL buffer; EDTA-free protease inhibitor cocktail; Roche Diagnostics 1873580) was added in order to reach a final protein concentration of 10 mg/mL total protein. The diluted cell lysate was stored on ice. Mixed Molt4/Ramos lysate was prepared by combining one volume of Molt4 lysate and two volumes of Ramos lysate (ratio 1:2).
(§7) To a 96 well filter plate (Multiscreen HTS, BV Filter Plates, Millipore #MSBVN1250) were added per well: 100 μL affinity matrix (3% beads slurry), […], of compound solution, and 50 μL of diluted lysate. […]

JAK3 = biological target: T2, JAK3 (Homo sapiens, UniProt P52333); test: Kinobeads assay, JAK3; format: binding; conditions: mixed Molt4/Ramos cell lysate, dot blot detection
T2 construct: endogenous in cells; host or cells: Mixed Molt4/Ramos lysate (1:2)
T2 sequence (P52333 1-1124): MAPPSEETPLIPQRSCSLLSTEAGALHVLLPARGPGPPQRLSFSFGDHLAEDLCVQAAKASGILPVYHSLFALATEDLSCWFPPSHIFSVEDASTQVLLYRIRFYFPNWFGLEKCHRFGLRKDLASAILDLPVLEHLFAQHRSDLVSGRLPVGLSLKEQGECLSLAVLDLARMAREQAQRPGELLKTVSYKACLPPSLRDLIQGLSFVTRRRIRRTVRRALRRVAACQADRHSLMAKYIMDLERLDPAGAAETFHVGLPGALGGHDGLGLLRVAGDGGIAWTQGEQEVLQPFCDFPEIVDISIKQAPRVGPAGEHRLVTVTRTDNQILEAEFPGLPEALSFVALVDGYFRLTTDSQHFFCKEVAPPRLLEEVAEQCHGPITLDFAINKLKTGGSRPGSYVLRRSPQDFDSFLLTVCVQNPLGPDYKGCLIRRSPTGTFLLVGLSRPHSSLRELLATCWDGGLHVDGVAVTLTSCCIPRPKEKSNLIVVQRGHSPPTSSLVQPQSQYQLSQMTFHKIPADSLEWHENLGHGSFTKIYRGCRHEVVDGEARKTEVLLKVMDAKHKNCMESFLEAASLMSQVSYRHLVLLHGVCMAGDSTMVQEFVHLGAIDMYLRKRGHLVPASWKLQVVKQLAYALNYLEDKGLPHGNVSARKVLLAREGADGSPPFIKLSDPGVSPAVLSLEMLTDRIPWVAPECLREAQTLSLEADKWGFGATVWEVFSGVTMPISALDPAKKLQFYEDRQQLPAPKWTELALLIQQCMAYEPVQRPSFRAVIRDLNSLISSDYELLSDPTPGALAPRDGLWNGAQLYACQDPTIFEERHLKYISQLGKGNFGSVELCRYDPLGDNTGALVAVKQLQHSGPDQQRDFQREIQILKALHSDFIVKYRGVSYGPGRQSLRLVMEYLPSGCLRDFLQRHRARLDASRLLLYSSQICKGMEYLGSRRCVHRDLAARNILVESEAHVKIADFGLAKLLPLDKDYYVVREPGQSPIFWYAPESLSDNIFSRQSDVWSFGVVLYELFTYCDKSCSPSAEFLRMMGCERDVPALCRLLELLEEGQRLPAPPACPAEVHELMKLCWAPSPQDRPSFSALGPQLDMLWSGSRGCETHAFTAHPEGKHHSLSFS
Method: as §1, §2, §3, §4, §5, §6, §7

T1 sequence (O60674 whole entry): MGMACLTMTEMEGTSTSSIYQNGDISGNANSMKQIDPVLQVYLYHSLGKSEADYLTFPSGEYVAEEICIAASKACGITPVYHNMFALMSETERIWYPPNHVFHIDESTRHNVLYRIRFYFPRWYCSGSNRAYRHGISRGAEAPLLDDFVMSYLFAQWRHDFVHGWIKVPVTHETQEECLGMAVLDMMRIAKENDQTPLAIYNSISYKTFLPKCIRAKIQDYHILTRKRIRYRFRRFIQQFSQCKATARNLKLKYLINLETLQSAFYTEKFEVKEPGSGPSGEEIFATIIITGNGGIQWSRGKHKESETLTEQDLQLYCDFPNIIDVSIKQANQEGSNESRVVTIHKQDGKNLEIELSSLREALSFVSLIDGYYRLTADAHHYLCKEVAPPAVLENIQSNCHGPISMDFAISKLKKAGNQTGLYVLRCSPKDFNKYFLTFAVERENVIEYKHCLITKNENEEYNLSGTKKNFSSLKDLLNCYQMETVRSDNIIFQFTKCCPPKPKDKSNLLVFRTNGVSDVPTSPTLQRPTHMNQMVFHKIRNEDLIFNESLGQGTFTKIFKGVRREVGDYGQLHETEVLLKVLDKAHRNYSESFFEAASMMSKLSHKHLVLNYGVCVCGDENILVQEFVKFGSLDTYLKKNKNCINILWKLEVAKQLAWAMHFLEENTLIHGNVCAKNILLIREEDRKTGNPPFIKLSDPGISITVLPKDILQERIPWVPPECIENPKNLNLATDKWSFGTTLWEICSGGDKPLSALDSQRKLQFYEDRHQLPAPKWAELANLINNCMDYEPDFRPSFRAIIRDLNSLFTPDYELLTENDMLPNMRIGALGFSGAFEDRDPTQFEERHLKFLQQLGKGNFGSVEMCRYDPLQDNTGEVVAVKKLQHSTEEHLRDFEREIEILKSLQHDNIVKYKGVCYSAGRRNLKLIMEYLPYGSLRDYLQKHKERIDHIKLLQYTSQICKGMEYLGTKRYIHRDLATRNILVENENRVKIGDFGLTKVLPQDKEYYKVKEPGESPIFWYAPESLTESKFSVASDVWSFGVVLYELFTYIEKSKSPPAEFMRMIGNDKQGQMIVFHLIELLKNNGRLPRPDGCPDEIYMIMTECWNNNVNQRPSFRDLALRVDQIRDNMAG

Structure (SMILES)	IC50 (JAK2) [µM]	IC50 (JAK3) [µM]
Cn1cc(Nc2ncc3cnn(Cc4ccccc4C#N)c3n2)cn1 [Example 1, 2-((6-(1-Methyl-1H-pyrazol-4-ylamino)-1H-pyrazolo[3,4-d]pyrimidin-1-yl)methyl)benzonitrile]	1 to 10	< 0.1
Cn1cc(Nc2ncc3cnn(Cc4ccccc4F)c3n2)cn1 [Example 2, 1-(2-Fluorobenzyl)-N-(1-methyl-1H-pyrazol-4-yl)-1H-pyrazolo[3,4-d]pyrimidin-6-amine]	1 to 10	< 0.1
Cn1ccc(Nc2ncc3cnn(Cc4ccccc4C#N)c3n2)n1 [Example 3, 2-((6-(1-Methyl-1H-pyrazol-3-ylamino)-1H-pyrazolo[3,4-d]pyrimidin-1-yl)methyl)benzonitrile]	≥ 10	0.1 to 1
N#Cc1ccccc1Cn1ncc2cnc(Nc3cn[nH]c3)nc21 [Example 4, 2-((6-(1H-Pyrazol-4-ylamino)-1H-pyrazolo[3,4-d]pyrimidin-1-yl)methyl)benzonitrile]	0.1 to 1	< 0.1
N#Cc1ccccc1Cn1ncc2cnc(Nc3ccon3)nc21 [Example 8]	≥ 10	1 to 10
Cc1cc(Nc2ncc3cnn(Cc4ccccc4C#N)c3n2)nn1C [Example 9, 2-((6-(1,5-Dimethyl-1H-pyrazol-3-ylamino)-1H-pyrazolo[3,4-d]pyrimidin-1-yl)methyl)benzonitrile]	≥ 10	0.1 to 1
COCCn1cc(Nc2ncc3cnn(Cc4ccccc4C#N)c3n2)cn1 [Example 10, 2-((6-(1-(2-Methoxyethyl)-1H-pyrazol-4-ylamino)-1H-pyrazolo[3,4-d]pyrimidi-1-yl)methyl)benzonitrile]	0.1 to 1	< 0.1
CCn1cc(Nc2ncc3cnn(Cc4ccccc4C#N)c3n2)cn1 [Example 11, 2-((6-(1-Ethyl-1H-pyrazol-4-ylamino)-1H-pyrazolo[3,4-d]pyrimidin-1-yl)methyl)benzonitrile]	1 to 10	< 0.1
CC(C)n1cc(Nc2ncc3cnn(Cc4ccccc4C#N)c3n2)cn1 [Example 12, 2-((6-(1-Isopropyl-1H-pyrazol-4-ylamino)-1H-pyrazolo[3,4-d]pyrimidin-1-yl)methyl)benzonitrile]	1 to 10	< 0.1
CNC(=O)Cn1cc(Nc2ncc3cnn(Cc4ccccc4C#N)c3n2)cn1 [Example 13, 2-(4-(1-(2-Cyanobenzyl)-1H-pyrazolo[3,4-d]pyrimidin-6-ylamino)-1H-pyrazol-1-yl)-N-methylacetamide]	0.1 to 1	< 0.1
N#Cc1ccccc1Cn1ncc2cnc(Nc3cnn(CC(=O)N4CCOCC4)c3)nc21 [Example 14, 2-((6-(1-(2-Morpholino-2-oxoethyl)-1H-pyrazol-4-ylamino)-1H-pyrazolo[3,4-d]pyrimidin-1-yl)methyl)benzonitrile]	0.1 to 1	< 0.1
N#CCCn1cc(Nc2ncc3cnn(Cc4ccccc4C#N)c3n2)cn1 [Example 15, 2-((6-(1-(2-Cyanoethyl)-1H-pyrazol-4-ylamino)-1H-pyrazolo[3,4-d]pyrimidin-1-yl)methyl)benzonitrile]	1 to 10	< 0.1
Cn1cc(Nc2ncc3cnn(Cc4ccccc4C(N)=O)c3n2)cn1 [Example 16, 2-((6-(1-Methyl-1H-pyrazol-4-ylamino)-1H-pyrazolo[3,4-d]pyrimidin-1-yl)methyl)benzamide]	1 to 10	< 0.1
CN(c1ccc(-n2ncc3cnc(Nc4cnn(C)c4)nc32)cc1)S(C)(=O)=O [Example 17, N-Methyl-N-(4-(6-(1-methyl-1H-pyrazol-4-ylamino)-1H-pyrazolo[3,4-d]pyrimidin-1-yl)phenyl)methanesulfonamide]	0.1 to 1	0.1 to 1
Cn1cc(Nc2ncc3cnn(-c4ccc(NS(C)(=O)=O)cc4)c3n2)cn1 [Example 18, N-(4-(6-(1-Methyl-1H-pyrazol-4-ylamino)-1H-pyrazolo[3,4-d]pyrimidin-1-yl)phenyl)methanesulfonamide]	0.1 to 1	< 0.1
CC(C)n1ccc(Nc2ncc3cnn(Cc4ccccc4C#N)c3n2)n1 [Example 19, 2-((6-(1-Isopropyl-1H-pyrazol-3-ylamino)-1H-pyrazolo[3,4-d]pyrimidin-1-yl)methyl)benzonitrile]	≥ 10	1 to 10
N#CCCCn1cc(Nc2ncc3cnn(Cc4ccccc4C#N)c3n2)cn1 [Example 20, 2-((6-(1-(3-Cyanopropyl)-1H-pyrazol-4-ylamino)-1H-pyrazolo[3,4-d]pyrimidin-1-yl)methyl)benzonitrile]	1 to 10	< 0.1
CCCn1cc(Nc2ncc3cnn(Cc4ccccc4C#N)c3n2)c(C)n1 [Example 21, 2-((6-(3-Methyl-1-propyl-1H-pyrazol-4-ylamino)-1H-pyrazolo[3,4-d]pyrimidin-1-yl)methyl)benzonitrile]	≥ 10	0.1 to 1
Cc1nn(CC(F)F)cc1Nc1ncc2cnn(Cc3ccccc3C#N)c2n1 [Example 22, 2-((6-(1-(2,2-Difluoroethyl)-3-methyl-1H-pyrazol-4-ylamino)-1H-pyrazolo[3,4-d]pyrimidin-1-yl)methyl)benzonitrile]	≥ 10	< 0.1
Cn1cc(Nc2ncc3cnn(Cc4cccc(N5CCOCC5)c4)c3n2)cn1 [Example 162, N-(1-Methyl-1H-pyrazol-4-yl)-1-(3-morpholinobenzyl)-1H-pyrazolo[3,4-d]pyrimidin-6-amine]	≥ 10	–
O=C(c1cccc(Cn2ncc3cnc(Nc4cnn(CCO)c4)nc32)c1F)N1CCOCC1 [Example 313, (2-Fluoro-3-((6-((1-(2-hydroxyethyl)-1H-pyrazol-4-yl)amino)-1H-pyrazolo[3,4-d]pyrimidin-1-yl)methyl)phenyl)(morpholino)methanone]	≥ 10	–
